Test results: patent US7868005B2, “Pyrazinyl substituted piperazine-piperidines with CXCR3 antagonist activity” (Schering Corporation, priority 2005, dated 2011)
pIC50: −log10 of the molar value.

These compounds were tested against T1, human CXCR3 (N-delta 4) (Homo sapiens, UniProt P49682) (assay: Human CXCR3 (N-delta 4) Scintillation Proximity Assay (SPA), [125I] IP-10 binding to Ba/F3-hCXCR3 membranes). Conditions: IC50 rating, Table 1; read-out: IC50.
T1 construct: CD8 leader (N); Flag; expressed in transfected cells; membranes prepared
T1 sequence (P49682 5-368 limits assumed): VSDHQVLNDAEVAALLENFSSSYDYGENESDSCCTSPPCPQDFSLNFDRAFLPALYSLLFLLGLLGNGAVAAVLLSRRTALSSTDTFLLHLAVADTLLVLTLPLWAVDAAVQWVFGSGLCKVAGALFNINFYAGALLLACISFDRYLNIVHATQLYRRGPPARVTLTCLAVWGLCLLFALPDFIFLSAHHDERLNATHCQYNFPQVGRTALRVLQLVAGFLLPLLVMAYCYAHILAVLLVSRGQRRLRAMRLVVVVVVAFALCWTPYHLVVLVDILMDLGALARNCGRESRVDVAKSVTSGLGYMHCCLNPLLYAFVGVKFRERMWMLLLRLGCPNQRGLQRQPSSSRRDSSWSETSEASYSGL

First: CC[C@H]1CN(c2nc(N)c(C(=O)NC[C@@H](C)O)nc2Cl)CCN1C1CCN(Cc2ccc(Cl)cc2C(O)C(=O)OC)CC1 (some centres unmarked) [compound 219]
Second: CC[C@H]1CN(c2nc(N)c(C(N)=O)nc2Cl)CCN1C1CCN(Cc2ccc(Cl)cc2[C@@H](O)C(=O)NC)CC1 [compound 44]
The pIC50 of the first is higher: over 7.60 for the first, under 7.00 for the second. The first is the more potent here.

First: CC[C@H]1CN(c2nc(N)c(C(N)=O)nc2Cl)CCN1C1CCN(Cc2ccc(Cl)cc2C(O)CO)CC1 (some centres unmarked) [compound 7]
Second: CC[C@H]1CN(c2nc(N)c(C(N)=O)nc2Cl)CCN1C1CCN(Cc2ccc(Cl)cc2C(N)C(N)=O)CC1 (some centres unmarked) [compound 381]
The pIC50 of the first is higher: over 7.60 for the first, 7.00 to 7.60 for the second.

CCNC(=O)c1nc(Cl)c(N2CCN(C3CCN(Cc4ccc(Cl)cc4)CC3)[C@@H](CC)C2)nc1N [compound 102] and CC[C@H]1CN(c2nc(N)c(C(=O)NCCO)nc2Cl)CCN1C1CCN(Cc2ccc(Cl)cc2)CC1 [compound 110] cannot be ordered by pIC50: over 7.60 for the first, over 7.60 for the second.

CC[C@H]1CN(c2ncc(C(=O)NC3CC3)nc2C)CCN1C1CCN(C(=O)c2ccc(C)cc2)CC1 [compound 446] and CC[C@H]1CN(c2ncc(C(=O)NC3CC3)nc2C)CCN1C1CCN(C(=O)c2ccc(C(F)(F)F)cc2)CC1 [compound 483] cannot be ordered by pIC50: over 7.60 for the first, over 7.60 for the second.

First: CC[C@H]1CN(c2nc(N)c(C(=O)NCCNS(C)(=O)=O)nc2Cl)CCN1C1CCN(Cc2ccc(Cl)cc2C(=N)NC)CC1 [compound 254]
Second: CC[C@H]1CN(c2nc(N)c(C(=O)NCCNS(C)(=O)=O)nc2Cl)CCN1C1CCN(Cc2ccc(Cl)cc2C(=N)N)CC1 [compound 243]
The pIC50 of the first is lower: 7.00 to 7.60 for the first, over 7.60 for the second. The second is the more potent here.

First: CC[C@H]1CN(c2nc(N)c(C(N)=O)nc2Cl)CCN1C1CCN(Cc2ccc(Cl)cc2C2OC(=O)N(C)C2=O)CC1 (some centres unmarked) [compound 406]
Second: CC[C@H]1CN(c2nc(N)c(C(N)=O)nc2Cl)CCN1C1CCN(Cc2ccc(Cl)cc2CC(=O)O)CC1 [compound 37]
The pIC50 of the first is lower: under 7.00 for the first, 7.00 to 7.60 for the second.

Compared with CC[C@H]1CN(c2nc(N)c(C(N)=O)nc2Cl)CCN1C1CCN(Cc2ccc(Cl)cc2CCO)CC1 [compound 4], CC[C@H]1CN(c2nc(N)c(C(N)=O)nc2Cl)CCN1C1CCN(Cc2ccc(Cl)cc2CCNS(C)(=O)=O)CC1 [compound 36] is lower in pIC50: over 7.60 for the first, 7.00 to 7.60 for the second. The first is the more potent here.

First: CC[C@H]1CN(c2nc(N)c(C(=O)NC)nc2Cl)CCN1C1CCN(C(=O)c2ccc(Cl)cc2O)CC1 [compound 343]
Second: CC[C@H]1CN(c2nc(N)c(C(=O)NCCO)nc2Cl)CCN1C1CCN(C(=O)c2ccc(Cl)cc2OC)CC1 [compound 362]
The pIC50 of the first is higher: 7.00 to 7.60 for the first, under 7.00 for the second.

CC[C@H]1CN(c2ncc(C(=O)NCCO)nc2C)[C@H](C)CN1C1CCN(Cc2ccc(OC(F)(F)F)cc2)CC1 [compound 488] and CC[C@H]1CN(c2ncc(C(N)=O)nc2C)[C@H](C)CN1C1CCN(Cc2ccc(F)cc2)CC1 [compound 432] cannot be ordered by pIC50: over 7.60 for the first, over 7.60 for the second.

CC[C@H]1CN(c2nc(N)c(C(=O)NCCO)nc2Cl)CCN1C1CCN(Cc2ccc(F)c(OCCSC)c2)CC1 [compound 413] and CC[C@H]1CN(c2nc(N)c(C(=O)NCCO)nc2Cl)CCN1C1CCN(Cc2ccc(F)c(OC)c2)CC1 [compound 394] cannot be ordered by pIC50: over 7.60 for the first, over 7.60 for the second.

CC[C@H]1CN(c2nc(N)c(C(=O)NCCO)nc2Cl)CCN1C1CCN(Cc2ccc(Cl)cc2-c2cnc(N)nc2)CC1 [compound 171] and CC[C@H]1CN(c2nc(N)c(C(=O)NCCO)nc2Cl)CCN1C1CCN(Cc2ccc(Cl)cc2-c2nnn[nH]2)CC1 [compound 161] cannot be ordered by pIC50: over 7.60 for the first, over 7.60 for the second.

Going from CC[C@H]1CN(c2cnc(C(=O)OC(C)C)c(N)n2)CCN1C1CCN(Cc2ccc(Cl)cc2)CC1 [compound 311] to CC[C@H]1CN(c2ncc(C(N)=O)nc2C)CCN1C1CCN(Cc2ccc(F)cc2)CC1 [compound 431], the pIC50 rises from under 7.00 to over 7.60.

CCOC(=O)/N=C(\N)c1cc(Cl)ccc1CN1CCC(N2CCN(c3nc(N)c(C(=O)NCCNS(C)(=O)=O)nc3Cl)C[C@@H]2CC)CC1 [compound 246] and CC[C@H]1CN(c2nc(N)c(C(=O)NCCO)nc2Cl)CCN1C1CCN(Cc2ccc(Cl)cc2OCCNS(C)(=O)=O)CC1 [compound 130] cannot be ordered by pIC50: over 7.60 for the first, over 7.60 for the second.

Compared with CC[C@H]1CN(c2nc(N)c(C(=O)NCCO)nc2Cl)CCN1C1CCN(C(=O)c2ccc(Cl)cc2CCNS(C)(=O)=O)CC1 [compound 347], CC[C@H]1CN(c2nc(N)c(C(=O)NCCO)nc2Cl)CCN1C1CCN(C(=O)c2ccc(F)c(O)c2)CC1 [compound 419] is higher in pIC50: 7.00 to 7.60 for the first, over 7.60 for the second. The second is the more potent here.

First: CC[C@H]1CN(c2nc(N)c(C(=O)NCCO)nc2C)[C@H](C)CN1C1CCN(C(=O)c2ccc(Cl)cc2)CC1 [compound 482]
Second: CC[C@H]1CN(c2nc(N)c(C(=O)N[C@@H](C)CO)nc2Cl)CCN1C1CCN(C(=O)c2ccc(Cl)cc2)CC1 [compound 323]
The pIC50 of the first is higher: over 7.60 for the first, 7.00 to 7.60 for the second.

First: CC[C@H]1CN(c2nc(N)c(C(=O)NCCNS(C)(=O)=O)nc2Cl)CCN1C1CCN([C@@H](CO)c2ccc(Cl)cc2)CC1 [compound 244]
Second: CC[C@H]1CN(c2nc(N)c(C(=O)NCCNS(N)(=O)=O)nc2Cl)CCN1C1CCN([C@@H](C(=O)OC)c2ccc(Cl)cc2)CC1 [compound 261]
The pIC50 of the first is higher: over 7.60 for the first, 7.00 to 7.60 for the second.

CC[C@H]1CN(c2ncc(C(=O)NC3CC3)nc2C)[C@H](C)CN1C1CCN([C@H](CO)c2ccc(Cl)cc2)CC1 [compound 481] and CC[C@H]1CN(c2ncc(C(=O)NC3CC3)nc2C)CCN1C1CCN([C@@H](CO)c2ccc(F)c(F)c2)CC1 [compound 471] cannot be ordered by pIC50: over 7.60 for the first, over 7.60 for the second.

Going from CC[C@H]1CN(c2ncc(C(=O)NC3=NCCN3)nc2Cl)CCN1C1CCN(C(=O)c2ccc(Cl)cc2)CC1 [compound 424] to CC[C@H]1CN(c2nc(N)c(C(=O)NC)nc2Cl)CCN1C1CCN(C(=O)c2ccc(C#N)cc2)CC1 [compound 340], the pIC50 rises from under 7.00 to over 7.60. The second is the more potent here.

CC[C@H]1CN(c2nc(N)c(C(=O)NCCO)nc2Cl)CCN1C1CCN([C@H](C(=O)O)c2ccc(Cl)cc2)CC1 [compound 203] and CC[C@H]1CN(c2nc(N)c(C(=O)NCCO)nc2Cl)CCN1C1CCN(C(CCN)c2ccc(Cl)cc2)CC1 (some centres unmarked) [compound 199] cannot be ordered by pIC50: under 7.00 for the first, under 7.00 for the second.

First: CC[C@H]1CN(c2nc(N)c(C(=O)NCCO)nc2Cl)CCN1C1CCN(C(=O)c2cc(F)c(F)cc2N)CC1 [compound 345]
Second: CC[C@H]1CN(c2nc(N)c(C(=O)NCCO)nc2Cl)CCN1C1CCN(Cc2ccc(F)c(F)c2)CC1 [compound 123]
The pIC50 of the first is lower: 7.00 to 7.60 for the first, over 7.60 for the second. The second is the more potent here.

Going from CC[C@H]1CN(c2nc(N)c(C(=O)NC)nc2Cl)CCN1C1CCN([C@H](C(=O)OC)c2ccc(Cl)cc2)CC1 [compound 77] to CC[C@H]1CN(c2nc(N)c(C(N)=O)nc2Cl)CCN1C1CCN([C@@H](CO)c2ccc(Cl)cc2)CC1 [compound 5], the pIC50 rises from under 7.00 to over 7.60. The second is the more potent here.

Compared with CCNC(=O)c1nc(Cl)c(N2CCN(C3CCN(Cc4ccc(Cl)cc4F)CC3)[C@@H](CC)C2)nc1N [compound 103], CC[C@H]1CN(c2nc(N)c(C(=O)OC)nc2Cl)CCN1C1CCN(Cc2ccc(Cl)cc2CC#N)CC1 [compound 299] is lower in pIC50: over 7.60 for the first, 7.00 to 7.60 for the second.

Compared with CC[C@H]1CN(c2ncc(C(=O)NC3CC3)nc2C)CCN1C1CCN(Cc2ccc(F)cc2)CC1 [compound 440], CC[C@H]1CN(c2nc(N)c(C(N)=O)nc2Cl)CCN1C1CCN(Cc2ccc(C(=O)NC)cc2)CC1 [compound 59] is lower in pIC50: over 7.60 for the first, under 7.00 for the second. The first is the more potent here.

First: CC[C@H]1CN(c2nc(N)c(C(=O)NCCO)nc2Cl)CCN1C1CCN([C@H](CO)c2ccc(C#N)cc2)CC1 [compound 153]
Second: CC[C@H]1CN(c2nc(N)c(C(=O)NCCO)nc2Cl)CCN1C1CCN(Cc2ccc(C#N)cc2O)CC1 [compound 180]
The pIC50 of the first is higher: over 7.60 for the first, 7.00 to 7.60 for the second.

CC[C@H]1CN(c2nc(N)c(C(=O)NC3CC3)nc2Cl)CCN1C1CCN(C(CCNC(=O)OC(C)(C)C)c2ccc(Cl)cc2)CC1 (some centres unmarked) [compound 96] and CC[C@H]1CN(c2nc(N)c(C(=O)NCCNC(=O)OC(C)(C)C)nc2Cl)CCN1C1CCN(Cc2ccc(Cl)cc2C#N)CC1 [compound 235] cannot be ordered by pIC50: under 7.00 for the first, under 7.00 for the second.

Compared with CC[C@H]1CN(c2nc(N)c(C(=O)NC)nc2Cl)CCN1C1CCN(CCCNC(=O)c2ccc(Cl)cc2)CC1 [compound 79], CC[C@H]1CN(c2nc(N)c(C(=O)NCCO)nc2Cl)CCN1C1CCN(Cc2ccc(Cl)cc2OCCO)CC1 [compound 124] is higher in pIC50: under 7.00 for the first, over 7.60 for the second. The second is the more potent here.

First: CC[C@H]1CN(c2nc(N)c(C(=O)NC(=N)NC)nc2Cl)CCN1C1CCN(C(=O)c2ccc(OC(F)(F)F)cc2)CC1 [compound 402]
Second: CC[C@H]1CN(c2nc(N)c(C(=O)NCCO)nc2Cl)CCN1C1CCN(C(C(=O)OC)c2ccc(Cl)cc2OC)CC1 (some centres unmarked) [compound 206]
The pIC50 of the first is higher: over 7.60 for the first, under 7.00 for the second.

Going from CC[C@H]1CN(c2ncc(C(N)=O)nc2C)CCN1C1CCN(C(=O)c2ccc(Cl)cc2N)CC1 [compound 442] to CC[C@H]1CN(c2nc(N)c(C(N)=O)nc2Cl)CCN1C1CCN(Cc2ccc(Cl)cc2CC(=O)N2CC[C@H](O)C2)CC1 [compound 48], the pIC50 falls from over 7.60 to under 7.00. The first is the more potent here.

CC[C@H]1CN(c2nc(N)c(C(=O)NCCO)nc2Cl)CCN1C1CCN(Cc2ccc(F)c(F)c2N2CC[C@H](O)C2)CC1 [compound 172] and CC[C@H]1CN(c2nc(N)c(C(=O)NCCO)nc2Cl)CCN1C1CCN(Cc2cc(F)c(Cl)cc2OCCCO)CC1 [compound 139] cannot be ordered by pIC50: over 7.60 for the first, over 7.60 for the second.

First: CC[C@H]1CN(c2nc(N)c(C(N)=O)nc2Cl)CCN1C1CCN(Cc2ccc(Cl)cc2-c2nnn[nH]2)CC1 [compound 23]
Second: CC[C@H]1CN(c2nc(N)c(C(=O)OC)nc2Cl)CCN1C1(C)CCN(Cc2ccc(Cl)cc2)CC1 [compound 310]
The pIC50 of the first is higher: 7.00 to 7.60 for the first, under 7.00 for the second. The first is the more potent here.

CC[C@H]1CN(c2nc(N)c(C(=O)NC)nc2Cl)CCN1C1(C)CCN(Cc2ccc(Cl)cc2)CC1 [compound 80] and COC(=O)c1cnc(N2C[C@H](C)N(C3CCN(Cc4ccc(Cl)cc4F)CC3)C[C@H]2C)cn1 [compound 288] cannot be ordered by pIC50: under 7.00 for the first, under 7.00 for the second.
